According to US10913744B2, “LRRK2 inhibitors and methods of making and using the same” (Dana-Farber Cancer Institute, Inc., priority 2015, dated 2021):
Like-named read-outs stand apart in the source and are kept apart here.

Assays:
LRRK2[G2019S] = LRRK2[G2019S] (Homo sapiens (Human), UniProt Q5S007, G2019S); experiment: LRRK2 enzyme kinase assay, G2019S; assay type: biochemical
wild type LRRK2 = wild type LRRK2 (Homo sapiens (Human), UniProt Q5S007); experiment: LRRK2 enzyme kinase assay, wild type; assay type: biochemical
LRRK2 [1] = biological target: LRRK2 (Mus musculus (Mouse), UniProt Q5S006); experiment: Pharmacodynamic study, LRRK2 Ser910/Ser935 phosphorylation in mouse kidney, spleen and brain; assay type: in vivo
LRRK2 [2] = details: G2019S LRRK2 transgenic mice, oral dosing; cited from earlier work
[3] = biological target: GST-LRRK2[G2019S](1,326-2,527) (Homo sapiens (Human), UniProt Q5S007, G2019S); experiment: Nictide peptide kinase assay, 100 μM ATP; assay type: biochemical; details: 20 μM Nictide
Description: (§1) Assay procedures are further discussed in Section 4 herein.
(§2) Samples were washed extensively and the incorporation of [γ-32P]ATP into Nictide was quantified by Cerenkov counting. IC50 values were calculated with GraphPad Prism using non-linear regression analysis.

[4] = biological target: GST-LRRK2[A2016T](1326-2517) (Homo sapiens (Human), UniProt Q5S007, A2016T); experiment: Nictide peptide kinase assay, 100 μM ATP; assay type: biochemical; details: 20 μM Nictide
Description: as §1, §2

[5] = biological target: GST-LRRK2[G2019S + A2016T](1,326-2,517) (Homo sapiens (Human), UniProt Q5S007, A2016T/G2019S); experiment: Nictide peptide kinase assay, 100 μM ATP; assay type: biochemical; details: 20 μM Nictide
Description: as §1, §2

[6] = biological target: GST-LRRK2(1,326-2,517) wild-type (Homo sapiens (Human), UniProt Q5S007); experiment: Nictide peptide kinase assay, 100 μM ATP; assay type: biochemical; details: 20 μM Nictide
Description: as §1, §2

[7] = Table 1, ATP at Km 36 μm, read-out: Enzyme IC50 wt
[8] = Table 3, read-out: Enzyme IC50 WT

Chain of LRRK2[G2019S] (Q5S007 1326-2527 G2019S): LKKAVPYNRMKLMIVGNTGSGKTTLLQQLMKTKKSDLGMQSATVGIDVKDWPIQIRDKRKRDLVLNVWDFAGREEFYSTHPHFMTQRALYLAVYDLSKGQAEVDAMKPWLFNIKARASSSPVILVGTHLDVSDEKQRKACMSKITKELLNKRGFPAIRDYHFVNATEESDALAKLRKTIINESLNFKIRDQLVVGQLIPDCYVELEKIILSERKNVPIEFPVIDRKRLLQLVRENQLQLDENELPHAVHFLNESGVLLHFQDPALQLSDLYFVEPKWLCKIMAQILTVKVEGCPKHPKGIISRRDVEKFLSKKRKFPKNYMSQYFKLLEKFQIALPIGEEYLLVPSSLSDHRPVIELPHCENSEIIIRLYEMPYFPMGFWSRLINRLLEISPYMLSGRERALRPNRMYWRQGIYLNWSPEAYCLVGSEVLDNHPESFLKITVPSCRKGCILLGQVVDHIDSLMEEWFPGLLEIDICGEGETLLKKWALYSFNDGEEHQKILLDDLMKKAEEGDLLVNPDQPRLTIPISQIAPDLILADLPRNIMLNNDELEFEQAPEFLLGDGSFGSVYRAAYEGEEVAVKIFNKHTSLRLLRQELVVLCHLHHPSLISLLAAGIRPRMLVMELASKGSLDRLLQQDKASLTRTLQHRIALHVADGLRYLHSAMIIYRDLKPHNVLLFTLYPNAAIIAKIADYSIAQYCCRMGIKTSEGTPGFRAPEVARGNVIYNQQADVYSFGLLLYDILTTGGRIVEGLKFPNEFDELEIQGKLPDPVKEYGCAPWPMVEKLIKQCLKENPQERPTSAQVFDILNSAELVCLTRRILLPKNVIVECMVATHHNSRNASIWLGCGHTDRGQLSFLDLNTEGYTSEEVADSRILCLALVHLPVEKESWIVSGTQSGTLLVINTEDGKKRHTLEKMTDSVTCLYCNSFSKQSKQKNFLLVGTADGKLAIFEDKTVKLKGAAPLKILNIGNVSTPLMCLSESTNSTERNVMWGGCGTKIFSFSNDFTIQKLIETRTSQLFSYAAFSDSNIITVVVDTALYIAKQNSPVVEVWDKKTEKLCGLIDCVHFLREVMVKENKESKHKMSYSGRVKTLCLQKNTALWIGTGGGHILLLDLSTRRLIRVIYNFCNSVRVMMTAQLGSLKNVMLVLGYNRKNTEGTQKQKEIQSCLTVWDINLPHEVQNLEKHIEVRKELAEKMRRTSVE
Chain of wild type LRRK2 (Q5S007 1326-2527): as the sequence (Q5S007 1326-2527 G2019S) above, with S694G counted along it
Chain of GST-LRRK2[G2019S + A2016T](1,326-2,517) (Q5S007 1326-2527 A2016T/G2019S): as the sequence (Q5S007 1326-2527 G2019S) above, with A691T counted along it
Chain of GST-LRRK2[G2019S](1,326-2,527) (Q5S007 1326-2527 G2019S): as the sequence (Q5S007 1326-2527 G2019S) above
Chain of GST-LRRK2(1,326-2,517) wild-type (Q5S007 1326-2527): as the sequence (Q5S007 1326-2527 G2019S) above, with S694G counted along it
Chain of GST-LRRK2[A2016T](1326-2517) (Q5S007 1326-2527 A2016T): as the sequence (Q5S007 1326-2527 G2019S) above, with A691T, S694G counted along it
Chain of LRRK2 (Mus musculus (Mouse), UniProt Q5S006) (Q5S006 whole entry, looked up): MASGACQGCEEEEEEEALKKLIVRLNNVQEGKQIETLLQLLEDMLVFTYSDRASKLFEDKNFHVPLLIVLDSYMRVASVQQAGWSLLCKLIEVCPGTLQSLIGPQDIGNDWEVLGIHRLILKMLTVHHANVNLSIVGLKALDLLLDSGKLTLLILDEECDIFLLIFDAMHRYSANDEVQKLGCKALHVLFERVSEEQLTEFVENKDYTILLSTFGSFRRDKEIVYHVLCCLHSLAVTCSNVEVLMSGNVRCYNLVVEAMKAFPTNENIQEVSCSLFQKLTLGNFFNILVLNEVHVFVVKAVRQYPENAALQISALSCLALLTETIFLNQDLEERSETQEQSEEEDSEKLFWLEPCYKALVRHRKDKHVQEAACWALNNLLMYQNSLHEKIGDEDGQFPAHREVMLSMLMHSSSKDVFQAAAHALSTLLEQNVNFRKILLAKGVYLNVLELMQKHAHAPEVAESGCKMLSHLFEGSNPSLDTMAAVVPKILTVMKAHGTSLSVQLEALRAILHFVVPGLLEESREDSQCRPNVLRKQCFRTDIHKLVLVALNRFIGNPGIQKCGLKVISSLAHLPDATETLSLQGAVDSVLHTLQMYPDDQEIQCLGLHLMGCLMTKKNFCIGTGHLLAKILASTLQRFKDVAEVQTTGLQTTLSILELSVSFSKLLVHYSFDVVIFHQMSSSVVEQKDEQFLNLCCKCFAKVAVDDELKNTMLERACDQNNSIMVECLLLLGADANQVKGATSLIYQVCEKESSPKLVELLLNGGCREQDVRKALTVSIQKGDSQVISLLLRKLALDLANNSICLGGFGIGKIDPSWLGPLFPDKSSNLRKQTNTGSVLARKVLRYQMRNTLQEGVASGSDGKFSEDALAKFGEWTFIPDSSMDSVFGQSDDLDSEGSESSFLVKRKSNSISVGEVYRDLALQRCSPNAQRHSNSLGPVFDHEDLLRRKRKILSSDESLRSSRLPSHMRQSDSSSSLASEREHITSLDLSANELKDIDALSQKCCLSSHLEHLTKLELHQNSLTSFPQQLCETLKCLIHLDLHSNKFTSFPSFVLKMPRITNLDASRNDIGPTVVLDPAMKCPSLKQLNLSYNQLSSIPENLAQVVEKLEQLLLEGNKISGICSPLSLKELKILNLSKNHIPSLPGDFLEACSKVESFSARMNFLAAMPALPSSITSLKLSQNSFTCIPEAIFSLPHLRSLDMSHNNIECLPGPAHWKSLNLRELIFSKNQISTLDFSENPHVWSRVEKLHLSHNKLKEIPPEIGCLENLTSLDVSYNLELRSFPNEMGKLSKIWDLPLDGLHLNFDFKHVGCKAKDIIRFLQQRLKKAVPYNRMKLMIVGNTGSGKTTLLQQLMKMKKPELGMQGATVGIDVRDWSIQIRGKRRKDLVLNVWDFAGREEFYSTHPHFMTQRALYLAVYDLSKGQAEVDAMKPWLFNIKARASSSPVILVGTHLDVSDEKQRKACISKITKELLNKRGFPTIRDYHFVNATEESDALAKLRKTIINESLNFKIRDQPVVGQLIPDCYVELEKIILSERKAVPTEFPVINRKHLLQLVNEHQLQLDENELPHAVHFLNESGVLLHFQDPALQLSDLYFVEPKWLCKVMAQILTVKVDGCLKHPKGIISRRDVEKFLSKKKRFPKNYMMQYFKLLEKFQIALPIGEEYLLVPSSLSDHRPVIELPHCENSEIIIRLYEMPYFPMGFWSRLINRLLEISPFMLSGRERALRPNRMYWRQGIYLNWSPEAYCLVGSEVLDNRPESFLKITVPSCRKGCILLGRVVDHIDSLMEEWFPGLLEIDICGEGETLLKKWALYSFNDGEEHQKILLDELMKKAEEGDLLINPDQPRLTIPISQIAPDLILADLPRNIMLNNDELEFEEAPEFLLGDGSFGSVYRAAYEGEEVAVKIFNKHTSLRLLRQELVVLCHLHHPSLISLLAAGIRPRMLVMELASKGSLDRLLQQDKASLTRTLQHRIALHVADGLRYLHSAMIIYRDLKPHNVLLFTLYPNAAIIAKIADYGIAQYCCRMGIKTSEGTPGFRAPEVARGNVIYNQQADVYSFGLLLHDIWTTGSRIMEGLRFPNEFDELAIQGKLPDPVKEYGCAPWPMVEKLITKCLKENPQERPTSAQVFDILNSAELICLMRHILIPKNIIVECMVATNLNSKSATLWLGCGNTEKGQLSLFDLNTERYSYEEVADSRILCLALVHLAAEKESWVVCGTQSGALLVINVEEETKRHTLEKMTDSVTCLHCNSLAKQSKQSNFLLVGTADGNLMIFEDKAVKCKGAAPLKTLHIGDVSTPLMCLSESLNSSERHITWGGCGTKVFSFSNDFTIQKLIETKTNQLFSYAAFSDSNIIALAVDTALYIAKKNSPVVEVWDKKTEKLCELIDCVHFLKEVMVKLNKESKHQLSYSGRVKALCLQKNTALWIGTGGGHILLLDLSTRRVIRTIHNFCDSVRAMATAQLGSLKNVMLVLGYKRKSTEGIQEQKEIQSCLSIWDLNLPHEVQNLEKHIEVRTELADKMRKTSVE

Molecule	IC50 (LRRK2[G2019S]; Table 1, ATP at Km 112 μm) [nM]	IC50 (wild type LRRK2; [7]) [nM]	further results
COc1cc(C(=O)N2CCOCC2)ccc1Nc1nc(OC)c2cc[nH]c2n1 [Compound 9, (3-methoxy-4-((4-methoxy-7H-pyrrolo[2,3-d]pyrimidin-2-yl)amino)phenyl) (morpholino)methanone]	95.7	13.6	
COc1cc(C(=O)N2CCOCC2)ccc1Nc1ncc2cc[nH]c2n1 [Compound 10]	40	34	
COCCNc1nc(Nc2ccc(C(=O)N3CCOCC3)cc2OC)nc2[nH]ccc12 [Compound 11]	3	4	
CCNc1nc(Nc2ccc(C(=O)N3CCOCC3)cc2OC)nc2[nH]ccc12 [Compound 12]	2.5	1.1	
CCCNc1nc(Nc2ccc(C(=O)N3CCOCC3)cc2OC)nc2[nH]ccc12 [Compound 13]	2.4	1.6	
COc1cc(C(=O)N2CCOCC2)ccc1Nc1nc(NCC2CCCO2)c2cc[nH]c2n1 (stereo not shown) [Compound 14]	4.4	3.3	
COc1cc(C(=O)N2CCOCC2)ccc1Nc1nc(NC2CC2)c2cc[nH]c2n1 [Compound 15]	4.7	2.4	
CNc1nc(Nc2cc(F)c(C(=O)N3CCOCC3)cc2OC)nc2[nH]ccc12 [Compound 16]	7.1	2.1	
COc1cc(C(=O)N2CCOCC2)ccc1Nc1ncc2c(Cl)c[nH]c2n1 [Compound 17]	108	159	
CCNc1nc(Nc2ccc(C(=O)N3CCOCC3)cc2OC)nc2[nH]cc(Cl)c12 [Compound 19]	4.4	1.4	
CCCNc1nc(Nc2ccc(C(=O)N3CCOCC3)cc2OC)nc2[nH]cc(Cl)c12 [Compound 20]	12.4	7.7	
CNc1nc(Nc2ccc(C(=O)N3CCOCC3)cc2OC)nc2[nH]cnc12 [Compound 21, (3-methoxy-4-((6-(methylamino)-9H-purin-2-yl)amino)phenyl)(morpholino) methanone]			IC50 (LRRK2[G2019S]; Table 3): 44 nM; IC50 (wild type LRRK2; [8]): 35 nM
COc1cc(C(=O)N2CCOCC2)ccc1Nc1nc(OC)c2nc[nH]c2n1 [Compound 22, (3-methoxy-4-((6-methoxy-9H-purin-2-yl)amino)phenyl)(morpholino)methanone]			IC50 (LRRK2[G2019S]; Table 3): 3 nM; IC50 (wild type LRRK2; [8]): 3 nM
COc1cc(C(=O)N2CCOCC2)ccc1Nc1nc(OC)c2cn[nH]c2n1 [Compound 24, (3-methoxy-4-((4-methoxy-1H-pyrazolo[3,4-d]pyrimidin-6-yl)amino)phenyl) (morpholino)methanone]			IC50 (LRRK2[G2019S]; Table 3): 18.5 nM; IC50 (wild type LRRK2; [8]): 19.4 nM
CCNc1nc(Nc2cc(F)c(C(=O)N3CCOCC3)cc2OC)ncc1C(F)(F)F [GNE7915, reference compound]			dephosphorylation of Ser935 of LRRK2 in kidney, spleen and brain (LRRK2 [1]; 100 mg/kg, intraperitoneal): near complete dephosphorylation of Ser935 of LRRK2; dose at which complete inhibition in brain was observed (LRRK2 [1]; doses 10, 30, 50, 100 mg/kg): 100 mg/kg; reduction of LRRK2 activity in brain (Ser935 phosphorylation) (LRRK2 [2]): significantly reduce LRRK2 activity in the brain
O=C(Nc1cccnc1)c1cc(-c2ccnc(F)c2)ccc1OCc1ccccc1 [GSK2578215A]			IC50 [3]: 8.9 nM; IC50 [4]: 81.1 nM; IC50 [5]: 61.3 nM; IC50 [6]: 10.9 nM
CNc1nc(Nc2ccc(C(=O)N3CCOCC3)cc2OC)ncc1Cl [HG-10-102-01]			reduction of LRRK2 activity in brain (Ser935 phosphorylation) (LRRK2 [2]): significantly reduce LRRK2 activity in the brain
COc1cc(C(=O)N2CCC(N3CCN(C)CC3)CC2)ccc1Nc1ncc2c(n1)N(C)c1ccccc1C(=O)N2C [LRRK2-IN-1]			IC50 [3]: 6 nM; IC50 [4]: 2450 nM; IC50 [5]: 3080 nM; IC50 [6]: 13 nM
N#Cc1cccc(-c2c[nH]c3ncnc(N4CCOCC4)c23)c1 [PF-06447474]			reduction of LRRK2 activity in brain (Ser935 phosphorylation) (LRRK2 [2]): capable of reducing LRRK2 activity in the brain
(3-methoxy-4-((4-(methylamino)-1H-pyrazolo[3,4-d]pyrimidin-6-yl)amino)phenyl)(morpholino)methanone [Compound 23]			IC50 (LRRK2[G2019S]; Table 3): 4 nM; IC50 (wild type LRRK2; [8]): 11.5 nM
